Legend:
[1] = tested on: c-MYC Pu22 (DNA, G4) TGAGGGTGGGTAGGGTGGGTAA; test: CD melting; conditions: K+ 5 mM; Tris 10 mM pH 7.2, DBI 10 μM, oligonucleotide 2 μM, DMSO 2%
[2] = tested on: sc ds-DNA (DNA, duplex) CAATCGGATCGAATTCGATCCGATTG; test: CD melting; conditions: K+ 5 mM; Tris 10 mM pH 7.2, DBI 10 μM, oligonucleotide 2 μM, DMSO 2%
[3] = tested on: 4G3U3 (RNA, G4) GGGUUUGGGUUUGGGUUUGGG; test: CD melting; conditions: K+ 5 mM; Tris 10 mM pH 7.2, DBI 10 μM, oligonucleotide 2 μM, DMSO 2%
[4] = tested on: c-MYC Pu24T (DNA, G4) TGAGGGTGGTGAGGGTGGGGAAGG; test: CD melting; conditions: K+ 5 mM; Tris 10 mM pH 7.2, DBI 10 μM, oligonucleotide 2 μM, DMSO 2%
[5] = tested on: Tel-22 (DNA, G4) AGGGTTAGGGTTAGGGTTAGGG; test: CD melting; conditions: K+ 5 mM; Tris 10 mM pH 7.2, DBI 10 μM, oligonucleotide 2 μM, DMSO 2%
[6] = tested on: Bom17 (DNA, G4) GGTTAGGTTAGGTTAGG; test: CD melting; conditions: K+ 5 mM; Tris 10 mM pH 7.2, DBI 10 μM, oligonucleotide 2 μM, DMSO 2%
[7] = tested on: ds-DNA HIF-1α (DNA, duplex) GCGCGGGGAGGGGAGAGGGGGCGGGAGCGCG/CGCGCTCCCGCCCCCTCTCCCCTCCCCGCGC; test: CD melting; conditions: K+ 5 mM; Tris 10 mM pH 7.2, DBI 10 μM, oligonucleotide 2 μM, DMSO 2%
[8] = tested on: HIF-1α (DNA, G4) GCGCGGGGAGGGGAGAGGGGGCGGGAGCGCG; test: fluorescence polarization titration; conditions: K+ 100 mM; Tris 50 mM pH 7.2, DBI 1 μM, DMSO 1%, DNA 0-10 μM
[9] = tested on: c-MYC Pu22 (DNA, G4) TGAGGGTGGGTAGGGTGGGTAA; test: fluorescence polarization titration; conditions: K+ 100 mM; Tris 50 mM pH 7.2, DBI 1 μM, DMSO 1%, DNA 0-10 μM
[10] = tested on: mut HIF-1α (DNA, single strand) GCGCGGCGAGCGGAGAGGGCGCGCGAGCGCG; test: fluorescence polarization titration; conditions: K+ 100 mM; Tris 50 mM pH 7.2, DBI 1 μM, DMSO 1%, DNA up to 10 μM
[11] = tested on: C-rich HIF-1α (DNA, single strand) CGCGCTCCCGCCCCCTCTCCCCTCCCCGCGC; test: fluorescence polarization titration; conditions: K+ 100 mM; Tris 50 mM pH 7.2, DBI 1 μM, DMSO 1%, DNA up to 10 μM
[12] = tested on: sc ds-DNA (DNA, duplex) CAATCGGATCGAATTCGATCCGATTG; test: fluorescence polarization titration; conditions: K+ 100 mM; Tris 50 mM pH 7.2, DBI 1 μM, DMSO 1%, DNA up to 10 μM
[13] = tested on: 4G3U3 (RNA, G4) GGGUUUGGGUUUGGGUUUGGG; test: fluorescence polarization titration; conditions: no or very weak binding response, group statement for all four RNAs
[14] = tested on: TERRA (RNA, G4) UUAGGGUUAGGGUUAGGGUUAGGG; test: fluorescence polarization titration; conditions: no or very weak binding response, group statement for all four RNAs
[15] = tested on: FMR1 (RNA, G4) GGAGGGGGAGGAAGAGGACAAGGAGGAAGAGG; test: fluorescence polarization titration; conditions: no or very weak binding response, group statement for all four RNAs
[16] = tested on: sc ds-RNA (RNA, duplex) CAAUCGGAUCGAAUUCGAUCCGAUUG; test: fluorescence polarization titration; conditions: no or very weak binding response, group statement for all four RNAs

- ΔTm [1]: 7.3 °C
- ΔTm [2]: -1.5 °C
- ΔTm [3]: 0.6 °C
- ΔTm [4]: 3.3 °C
- ΔTm [5]: -1.3 °C
- ΔTm [6]: -0.1 °C
- ΔTm [7]: 2 °C
- Ka [8]: 4.6 × 10^5 ± 0.5 M^−1
- Ka [9]: 4.5 × 10^5 ± 1.1 M^−1
- binding [10]: no
- binding [11]: no
- binding [12]: no
- binding [13]: weak
- binding [14]: weak
- binding [15]: weak
- binding [16]: weak
SMILES: CCC(CC)n1c(=O)c2ccc3sc4ccc5ccccc5c4c4ccc(c1=O)c2c34
